Source: BindingDB's records for doi:10.1111/cbdd.12579 (University of Karachi, 2015)

Tests used:
Acetylcholinesterase = Acetylcholinesterase (Electrophorus electricus, UniProt O42275); experiment: AChE and BChE Inhibition Assay; settings: pH 8; 25 °C
Protocol: (§1) A […] well plate was used for screening purpose. Each pyridopyrazine derivative was first dissolved in dimethyl sulfoxide to prepare the stock solutions. The synthetic compounds were then screened against electric eel acetylcholinesterase (eeAChE) and equine butyrylcholinesterase (BChE) at different concentrations (1 µM or 10 µM) of dimethyl sulfoxide as negative control in primarily screening. […] The reaction mixture which comprised of buffer solution (20 µL), synthetic compound (10 µL) and enzyme (0.5 and 3.4 U/mg, eeAChE or equine BChE) was primarily incubated for ten minutes at room temperature (25 C). Subsequently to the mixture, once the preincubation over, the acetylthiocholine iodide or butyrylthiocholine chloride (10 μL of 10 mM) was added and incubated it further for

[1] = biological target: Carboxylic ester hydrolase (Equus caballus, UniProt Q9N1N9); experiment: AChE and BChE Inhibition Assay; settings: pH 8; 25 °C
Protocol: as §1

Carboxylic ester hydrolase, sequence (Q9N1N9 whole entry): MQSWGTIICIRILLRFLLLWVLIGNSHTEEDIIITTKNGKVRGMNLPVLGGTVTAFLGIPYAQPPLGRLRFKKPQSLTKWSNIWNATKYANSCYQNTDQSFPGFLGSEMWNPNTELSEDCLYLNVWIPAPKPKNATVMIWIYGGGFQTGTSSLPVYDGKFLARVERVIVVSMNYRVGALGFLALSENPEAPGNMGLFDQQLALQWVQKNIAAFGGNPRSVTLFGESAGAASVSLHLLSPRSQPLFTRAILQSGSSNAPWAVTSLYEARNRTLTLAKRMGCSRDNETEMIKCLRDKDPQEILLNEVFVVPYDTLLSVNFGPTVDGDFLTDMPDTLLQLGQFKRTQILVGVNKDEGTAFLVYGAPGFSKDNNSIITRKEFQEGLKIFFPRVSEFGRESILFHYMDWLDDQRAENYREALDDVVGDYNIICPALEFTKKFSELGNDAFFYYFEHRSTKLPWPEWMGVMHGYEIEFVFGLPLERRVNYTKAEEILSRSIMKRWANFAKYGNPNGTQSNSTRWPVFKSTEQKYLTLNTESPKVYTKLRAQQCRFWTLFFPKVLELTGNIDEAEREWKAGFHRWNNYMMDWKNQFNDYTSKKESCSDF
Acetylcholinesterase, sequence (O42275 whole entry): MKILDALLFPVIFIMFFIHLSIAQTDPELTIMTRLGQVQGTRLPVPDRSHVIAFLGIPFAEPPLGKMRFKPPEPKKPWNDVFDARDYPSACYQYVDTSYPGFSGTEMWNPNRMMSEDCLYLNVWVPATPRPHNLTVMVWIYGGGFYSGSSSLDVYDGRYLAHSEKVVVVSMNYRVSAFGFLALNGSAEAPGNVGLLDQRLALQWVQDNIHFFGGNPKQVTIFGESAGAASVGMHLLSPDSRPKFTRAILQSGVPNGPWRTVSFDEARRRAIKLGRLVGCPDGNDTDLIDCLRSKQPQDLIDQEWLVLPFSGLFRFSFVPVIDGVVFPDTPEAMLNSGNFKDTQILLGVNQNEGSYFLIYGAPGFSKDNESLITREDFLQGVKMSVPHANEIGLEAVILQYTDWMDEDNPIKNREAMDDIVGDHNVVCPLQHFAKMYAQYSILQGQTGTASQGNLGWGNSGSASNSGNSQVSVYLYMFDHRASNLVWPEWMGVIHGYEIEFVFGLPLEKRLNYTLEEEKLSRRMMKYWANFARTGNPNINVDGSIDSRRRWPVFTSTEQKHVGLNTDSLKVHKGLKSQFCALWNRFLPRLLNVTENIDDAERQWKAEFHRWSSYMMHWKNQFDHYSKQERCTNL

SMILES | IC50 (Acetylcholinesterase) [µM] | IC50 [1] [µM]
Cc1ccc(-c2cnc3cccnc3n2)cc1 [3-(4′-Methylphenyl)pyrido[2,3-b]pyrazine (6b)] | 3.06 | 6.44
Fc1cccc(-c2cnc3cccnc3n2)c1 [3-(3′-Fluorophenyl)pyrido[2,3-b]pyrazine (6f)] | 0.899 | 79.8
c1ccc(-c2cnc3cccnc3n2)cc1 [3-Phenylpyrido[2,3-b]pyrazine (6a)] | 9.65 | 35.4
CN(C)C(=O)Oc1cccc([N+](C)(C)C)c1 [m-Trimethylammoniumphenyldimethylcarbamate] |  | 49.6
c1cnc2nc(-c3ccc(N4CCCCC4)cc3)cnc2c1 [3-(4′-(Piperidin-1-yl)phenyl)pyrido[2,3-b]pyrazine (6p)] | 4.75 | 3.91
Clc1ccc(-c2cnc3cccnc3n2)cc1 [3-(4′-Chlorophenyl)pyrido[2,3-b]pyrazine (6g)] | 2.59 | 2.63
Brc1ccccc1-c1cnc2cccnc2n1 [3-(2′-Bromophenyl)pyrido[2,3-b]pyrazine (6k)] | 4.03 | 7.45
Fc1ccc(-c2cnc3cccnc3n2)cc1 [3-(4′-Fluorophenyl)pyrido[2,3-b]pyrazine (6e)] | 2.45 | 11.2
O=[N+]([O-])c1cccc(-c2cnc3cccnc3n2)c1 [3-(3′-Nitrophenyl)pyrido[2,3-b]pyrazine (6n)] | 0.466 | 1.89
Brc1cccc(-c2cnc3cccnc3n2)c1 [3-(3′-Bromophenyl)pyrido[2,3-b]pyrazine (6j)] | 3.12 | 11.5
c1cnc2nc3c(nc2c1)CCCC3 [6,7,8,9-tetrahydropyrido[2,3-b]quinoxaline (6q)] | 5.78 | 10.9
Cc1ccccc1-c1cnc2cccnc2n1 [3-(2′-Methylphenyl)pyrido[2,3-b]pyrazine (6d)] | 5.39 | 21.2
Clc1ccccc1-c1cnc2cccnc2n1 [3-(2′-Chlorophenyl)pyrido[2,3-b]pyrazine (6i)] | 2.52 | 9.67
O=[N+]([O-])c1ccc(-c2cnc3cccnc3n2)cc1 [3-(4′-Nitrophenyl)pyrido[2,3-b]pyrazine (6m)] | 1.97 | 20.8
Cc1cccc(-c2cnc3cccnc3n2)c1 [3-(3′-Methylphenyl)pyrido[2,3-b]pyrazine (6c)] | 5.88 | 0.583
Clc1cccc(-c2cnc3cccnc3n2)c1 [3-(3′-Chlorophenyl)pyrido[2,3-b]pyrazine (6h)] | 1.26 | 12.1
Ic1ccc(-c2cnc3cccnc3n2)cc1 [3-(4′-Iodophenyl)pyrido[2,3-b]pyrazine (6l)] | 4.05 | 31.2
O=[N+]([O-])c1ccccc1-c1cnc2cccnc2n1 [3-(2′-Nitrophenyl)pyrido[2,3-b]pyrazine (6o)] | 3 | 22.3
